Each compound was assayed on synthesis of LTB4 in human whole blood (assay: human whole blood LTB4 production inhibition assay). Details: calcimycin stimulated, read-out: hWB LTB4 IC50.
Type: cell-based
Experimental: Compounds are additionally tested in a human whole blood assay to determine their ability to inhibit the synthesis of LTB4 in a cellular system. Compounds are combined with heparinized human whole blood and incubated for 15 minutes at 37° C. Calcimycin (20 μM final, prepared in phosphate-buffered saline, pH 7.4) is then added and the mixture is incubated for another 30 minutes at 37° C. The samples are centrifuged for 5 min at low speed (1500×g) and the plasma layer is removed. Plasma LTB4 concentrations are then measured using an antibody-based homogenous time-resolved fluorescence method (CisBio, Bedford, Mass.).

Point of comparison: `CC(C)(O)Cn1cc(-c2nc([C@@](C)(c3ccc(-c4cnc(N)nc4)nc3)C3CC3)no2)cn1` [Example 81, 1-[4-(3-{(1R)-1-[6-(2-aminopyrimidin-5-yl)pyridin-3-yl]-1-cyclopropylethyl}-1,2,4-oxadiazol-5-yl)-1H-pyrazol-1-yl]-2-methylpropan-2-ol], IC50 0.041 µM. Against it:
- CC(C)(O)Cn1cc(-c2nc(C(C)(c3ccc(-c4cnc(N)nc4)nc3)C3CC3)no2)cn1 (stereo not drawn) [Example 66, 1-[4-(3-{1-[6-(2-aminopyrimidin-5-yl)pyridin-3-yl]-1-cyclopropylethyl}-1,2,4-oxadiazol-5-yl)-1H-pyrazol-1-yl]-2-methylpropan-2-ol] — within 1.5-fold, 0.052 µM
- CC(C)(O)Cn1cc(-c2nc([C@](C)(c3ccc(-c4cnc(N)nc4)nc3)C3CC3)no2)cn1 [Example 82, 1-[4-(3-{(1S)-1-[6-(2-aminopyrimidin-5-yl)pyridin-3-yl]-1-cyclopropylethyl}-1,2,4-oxadiazol-5-yl)-1H-pyrazol-1-yl]-2-methylpropan-2-ol] — 29-fold higher, 1.2 µM
- CC(C)(O)Cn1cc(-c2nc([C@@](C)(c3ccc(-c4cnc(N)c(C#N)c4)nc3)C3CC3)no2)cn1 [Example 162, 6′-Amino-5-((R)-1-cyclopropyl-1-{5-[1-(2-hydroxy-2-methyl-propyl)-1H-pyrazol-4-yl]-[1,2,4]oxadiazol-3-yl}-ethyl)-[2,3′]bipyridinyl-5′-carbonitrile] — 7.8-fold higher, 0.319 µM
- CC(C)(O)Cn1cc(-c2nc([C@@](C)(c3ccc(-c4cnc5c(c4)OCCN5)nc3)C3CC3)no2)cn1 [Example 167, 1-[4-(3-{(R)-1-Cyclopropyl-1-[6-(3,4-dihydro-2H-pyrido[3,2-b][1,4]oxazin-7-yl)-pyridin-3-yl]-ethyl}-[1,2,4]oxadiazol-5-yl)-pyrazol-1-yl]-2-methyl-propan-2-ol] — 4.2-fold higher, 0.171 µM
- CC(C)(O)Cn1cc(-c2nc([C@@](C)(c3ccc(-c4cnc5[nH]ccc5n4)nc3)C3CC3)no2)cn1 [Example 168, 1-[4-(3-{(R)-1-Cyclopropyl-1-[6-(5H-pyrrolo[2,3-b]pyrazin-2-yl)-pyridin-3-yl]-ethyl}-[1,2,4]oxadiazol-5-yl)-pyrazol-1-yl]-2-methyl-propan-2-ol] — 1.5-fold higher, 0.063 µM
- CNc1ncc(-c2ccc([C@](C)(c3noc(-c4cnn(C5CCOCC5)c4)n3)C3CC3)cn2)cn1 [Example 169, {5-[5-((R)-1-Cyclopropyl-1-{5-[1-(tetrahydro-pyran-4-yl)-1H-pyrazol-4-yl]-[1,2,4]oxadiazol-3-yl}-ethyl)-pyridin-2-yl]-pyrimidin-2-yl}-methyl-amine] — 2.6-fold higher, 0.105 µM
- CNc1cnc(-c2ccc([C@](C)(c3noc(-c4cnn(C)c4)n3)C3CC3)cn2)cn1 [Example 170, [5-(5-{(R)-1-Cyclopropyl-1-[5-(1-methyl-1H-pyrazol-4-yl)-[1,2,4]oxadiazol-3-yl]-ethyl}-pyridin-2-yl)-pyrazin-2-yl]-methyl-amine] — 2.7-fold higher, 0.112 µM
- C[C@@](c1ccc(-c2cnc(N)nc2)nc1)(c1noc(-c2cnn(C3CCOCC3)c2)n1)C1CC1 [Example 171, 5-[5-((R)-1-Cyclopropyl-1-{5-[1-(tetrahydro-pyran-4-yl)-1H-pyrazol-4-yl]-[1,2,4]oxadiazol-3-yl}ethyl)-pyridin-2-yl]-pyrimidin-2-ylamine] — 2.9-fold higher, 0.119 µM
- CNc1ncc(-c2ccc([C@](C)(c3noc(-c4cnn(C)c4)n3)C3CC3)cn2)cn1 [Example 172, [5-(5-{(R)-1-Cyclopropyl-1-[5-(1-methyl-1H-pyrazol-4-yl)-[1,2,4]oxadiazol-3-yl]ethyl}-pyridin-2-yl)-pyrimidin-2-yl]-methyl-amine] — 2.5-fold higher, 0.104 µM
- CNc1cnc(-c2ccc([C@](C)(c3noc(-c4cnn(C5CCOCC5)c4)n3)C3CC3)cn2)cn1 [Example 173, {5-[5-((R)-1-Cyclopropyl-1-{5-[1-(tetrahydro-pyran-4-yl)-1H-pyrazol-4-yl]-[1,2,4]oxadiazol-3-yl}-ethyl)-pyridin-2-yl]-pyrazin-2-yl}-methyl-amine] — 5.4-fold higher, 0.221 µM
- C[C@@](c1ccc(-c2cnc(N)cn2)nc1)(c1noc(-c2cnn(C3CCOCC3)c2)n1)C1CC1 [Example 174] — within 1.5-fold, 0.053 µM

From patent publication US8580825B2, “Oxadiazole inhibitors of leukotriene production” (Boehringer Ingelheim International GmbH, priority 2010, dated 2013)
